Source: patent US20260250318A1, “COMPOSITIONS AND METHODS FOR CROSSING THE BLOOD BRAIN BARRIER” (VOYAGER THERAPEUTICS, INC., priority 2022, published 2026)

System: brain, spinal cord, and DRG of the NHPs
Assay: NGS fold enrichment of synthetic library (passage 3) in NHPs, first cross-species screen
Format: in vivo, cynomolgus macaques (Macaca fascicularis)
Details: synthetic library passage 3, intravenous, RNA NGS, brain of NHPs, relative to wild-type AAV9
Outline: (§1)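 Synthetic capsid library (passage 3) was given intravenously […] to NHPs aged 2-4 years and to BALB/c and C57Bl/6 mice (n=3 each, 6-8 weeks). After about 28 days in vivo, tissue RNA was RT-PCR amplified and NGS-sequenced; values are fold enrichment per variant relative to wild-type AAV9.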

Sequence | Fold enrichment over AAV9 in the brain of NHPs [fold]
GSGQPYSTGLNQQT | 1.519
GSGQNTRLQLGQQT | 1.452
GSGQNQQTTSSNMT | 1.099
GSGQNQQSGRGDLT | 2.019
GSGQNQQALHNPHT | 1.553
GERHTVLSGQNQQT | 3.289
GMRMEYQSGQNQQT | 1.729
GLSAEKSSGQNQQT | 1.047
GSGQNQQTSPRLQT | 1.100
GSSKELLWGQNQQT | 2.163
GSGVQHSLPQNQQT | 1.639

Same assay, conditions: synthetic library passage 3, intravenous, RNA NGS, spinal cord of NHPs, relative to wild-type AAV9

Sequence | Fold enrichment over AAV9 in the spinal cord of NHPs [fold]
GSGQPYSTGLNQQT | 1.403
GSGQNTRLQLGQQT | 1.747
GSGQNQQTTSSNMT | 0.569
GSGQNQQSGRGDLT | 6.919
GSGQNQQALHNPHT | 0.664
GERHTVLSGQNQQT | 3.008
GMRMEYQSGQNQQT | 3.695
GLSAEKSSGQNQQT | 7.203
GSGQNQQTSPRLQT | 0.795
GSSKELLWGQNQQT | 0.000
GSGVQHSLPQNQQT | 0.764

Same assay, conditions: synthetic library passage 3, intravenous, RNA from brain of NHPs, NGS, relative to wild-type AAV9

Sequence | Fold enrichment over AAV9 in the brain of NHPs [fold]
GPDRIGSSGQNQQT | 1.308
GSGQNKDHSTRRQT | 1.197
GSGQSSYGSGNQQT | 1.257

Same assay, conditions: synthetic library passage 3, intravenous, RNA from spinal cord of NHPs, NGS, relative to wild-type AAV9

Sequence | Fold enrichment over AAV9 in the spinal cord of NHPs [fold]
GPDRIGSSGQNQQT | 0.426
GSGQNKDHSTRRQT | 0.000
GSGQSSYGSGNQQT | 1.686

System: brain
Assay: NGS fold enrichment of synthetic library (passage 3) in BALB/c mice, first cross-species screen
Format: in vivo
Details: synthetic library passage 3, intravenous, RNA NGS, brain of BALB/c mice, relative to wild-type AAV9
Outline: as §1

Sequence | Fold enrichment over AAV9 in the brain of Mice (BALB/c) [fold]
GSGQPYSTGLNQQT | 0.376
GSGQNTRLQLGQQT | 0.234
GSGQNQQTTSSNMT | 0.698
GSGQNQQSGRGDLT | 1.152
GSGQNQQALHNPHT | 0.213
GERHTVLSGQNQQT | 0.607
GMRMEYQSGQNQQT | 0.632
GLSAEKSSGQNQQT | 0.303
GSGQNQQTSPRLQT | 1.091
GSSKELLWGQNQQT | 0.883
GSGVQHSLPQNQQT | 0.387

Same assay, conditions: synthetic library passage 3, intravenous, RNA from brain of BALB/c mice, NGS, relative to wild-type AAV9

Sequence | Fold enrichment over AAV9 in the brain of Mice (BALB/c) [fold]
GPDRIGSSGQNQQT | 0.342
GSGQNKDHSTRRQT | 0.477
GSGQSSYGSGNQQT | 0.456

System: brain
Assay: NGS fold enrichment of synthetic library (passage 3) in C57Bl/6 mice, first cross-species screen
Format: in vivo
Details: synthetic library passage 3, intravenous, RNA NGS, brain of C57Bl/6 mice, relative to wild-type AAV9
Outline: as §1

Sequence | Fold enrichment over AAV9 in the brain of Mice (C57Bl/6) [fold]
GSGQPYSTGLNQQT | 0.612
GSGQNTRLQLGQQT | 0.181
GSGQNQQTTSSNMT | 0.638
GSGQNQQSGRGDLT | 0.524
GSGQNQQALHNPHT | 0.638
GERHTVLSGQNQQT | 1.027
GMRMEYQSGQNQQT | 0.644
GLSAEKSSGQNQQT | 0.629
GSGQNQQTSPRLQT | 1.156
GSSKELLWGQNQQT | 0.506
GSGVQHSLPQNQQT | 0.440

Same assay, conditions: synthetic library passage 3, intravenous, RNA from brain of C57Bl/6 mice, NGS, relative to wild-type AAV9

Sequence | Fold enrichment over AAV9 in the brain of Mice (C57Bl/6) [fold]
GPDRIGSSGQNQQT | 0.654
GSGQNKDHSTRRQT | 0.384
GSGQSSYGSGNQQT | 1.161
